Measured values: ChEMBL document CHEMBL4715698, “Design and synthesis of novel selective anaplastic lymphoma kinase inhibitors” (Bioorg Med Chem Lett, 2016)
Values after ≈ are worked out from the molar mass of the structure shown.

Assays:
[1] = system: BaF3; assay: Antiproliferative activity against wild type mouse BaF3 cells assessed as reduction in cell growth incubated for 2 to 3 days by Bright-Glo luciferase assay
[2] = Metabolic stability in mouse liver microsomes assessed as intrinsic clearance; format: ADME, Microsome; settings: read-out: CLH
[3] = Metabolic stability in rat liver microsomes assessed as intrinsic clearance; format: ADME, Microsome; settings: read-out: CLH
[4] = Metabolic stability in human liver microsomes assessed as intrinsic clearance; format: ADME, Microsome; settings: read-out: CLH
[5] = biological target: Cytochrome P450 3A4 (Homo sapiens, UniProt P08684); assay: Inhibition of CYP3A4 (unknown origin) using midazolam as substrate; format: ADME
[6] = Solubility in DMSO at pH 6.8 by high-throughput solubility assay; format: physicochemical
[7] = Permeability of compound by PAMPA assay; format: ADME
[8] = biological target: Voltage-gated inwardly rectifying potassium channel KCNH2 (Homo sapiens, UniProt Q12809); assay: Inhibition of human ERG by dofetilide binding assay
[9] = Clearance in mouse at 5 mg/kg, iv; format: ADME, organism-based; settings: in vivo
[10] = Volume of distribution at steady state in mouse at 5 mg/kg, iv; format: ADME, organism-based; settings: in vivo, read-out: Vdss
[11] = Cmax in mouse at 20 mg/kg, po; format: ADME, organism-based; parameters: route oral, dose 20 mg/kg; settings: in vivo
[12] = AUC in mouse at 20 mg/kg, po; format: ADME, organism-based; parameters: dose 20 mg/kg; settings: in vivo
[13] = Oral bioavailability in mouse at 20 mg/kg; format: ADME, organism-based; settings: in vivo
[14] = Clearance in rat at 3 mg/kg, iv; format: ADME, organism-based; settings: in vivo
[15] = Volume of distribution at steady state in rat at 3 mg/kg, iv; format: ADME, organism-based; settings: in vivo, read-out: Vdss
[16] = Cmax in rat at 10 mg/kg, po; format: ADME, organism-based; parameters: route oral, dose 10 mg/kg; settings: in vivo
[17] = AUC in rat at 10 mg/kg, po; format: ADME, organism-based; parameters: dose 10 mg/kg; settings: in vivo
[18] = Oral bioavailability in rat at 10 mg/kg; format: ADME, organism-based; settings: in vivo
[19] = biological target: ALK tyrosine kinase receptor (Homo sapiens, UniProt Q9UM73); assay: Inhibition of ALK (unknown origin)
[20] = biological target: EML4-ALK (Homo sapiens, UniProt Q9UM73); assay: Inhibition EML4-ALK (unknown origin); format: protein assay
[21] = biological target: NPM/ALK (Nucleophosmin/ALK tyrosine kinase receptor) (Homo sapiens, UniProt Q9UM73); assay: Inhibition NMP-ALK (unknown origin); format: protein assay
[22] = biological target: Tyrosine-protein kinase BTK (Homo sapiens, UniProt Q06187); assay: Inhibition of BTK (unknown origin)
[23] = biological target: Tyrosine-protein kinase ABL1 (Homo sapiens, UniProt P00519); assay: Inhibition of ABL (unknown origin)
[24] = biological target: RAC-alpha serine/threonine-protein kinase (Homo sapiens, UniProt P31749); assay: Inhibition of AKT (unknown origin)
[25] = Inhibition of Aurora (unknown origin); parameters: species or system Homo sapiens
[26] = biological target: Cyclin-dependent kinase 2 (Homo sapiens, UniProt P24941); assay: Inhibition of CDK2 (unknown origin)
[27] = biological target: Glycogen synthase kinase-3 beta (Homo sapiens, UniProt P49841); assay: Inhibition of GSK3beta (unknown origin)
[28] = biological target: Tyrosine-protein kinase JAK1 (Homo sapiens, UniProt P23458); assay: Inhibition of JAK1 (unknown origin)
[29] = biological target: Tyrosine-protein kinase JAK2 (Homo sapiens, UniProt O60674); assay: Inhibition of JAK2 (unknown origin)
[30] = biological target: Tyrosine-protein kinase JAK3 (Homo sapiens, UniProt P52333); assay: Inhibition of JAK3 (unknown origin)
[31] = biological target: Mitogen-activated protein kinase 1 (Homo sapiens, UniProt P28482); assay: Inhibition of MAPK1 (unknown origin)
[32] = biological target: Serine/threonine-protein kinase PLK1 (Homo sapiens, UniProt P53350); assay: Inhibition of PLK1 (unknown origin)
[33] = biological target: Non-receptor tyrosine-protein kinase TYK2 (Homo sapiens, UniProt P29597); assay: Inhibition of TYK2 (unknown origin)
[34] = biological target: Ephrin type-A receptor 4 (Homo sapiens, UniProt P54764); assay: Inhibition of EphA4 (unknown origin)
[35] = biological target: Ephrin type-B receptor 4 (Homo sapiens, UniProt P54760); assay: Inhibition of EphB4 (unknown origin)
[36] = biological target: Fibroblast growth factor receptor 4 (Homo sapiens, UniProt P22455); assay: Inhibition of FGFR4 (unknown origin)
[37] = biological target: Fibroblast growth factor receptor 3 (Homo sapiens, UniProt P22607); assay: Inhibition of FGFR3 (unknown origin)
[38] = biological target: Epidermal growth factor receptor (Homo sapiens, UniProt P00533); assay: Inhibition of HER1 (unknown origin)
[39] = biological target: Receptor tyrosine-protein kinase erbB-2 (Homo sapiens, UniProt P04626); assay: Inhibition of HER2 (unknown origin)
[40] = biological target: Insulin-like growth factor 1 receptor (Homo sapiens, UniProt P08069); assay: Inhibition of IGF-1R (unknown origin)
[41] = biological target: Vascular endothelial growth factor receptor 2 (Homo sapiens, UniProt P35968); assay: Inhibition of KDR (unknown origin)
[42] = biological target: Tyrosine-protein kinase Lck (Homo sapiens, UniProt P06239); assay: Inhibition of LCK (unknown origin)
[43] = biological target: Platelet-derived growth factor receptor alpha (Homo sapiens, UniProt P16234); assay: Inhibition of PDGFRalpha (unknown origin)
[44] = biological target: Proto-oncogene tyrosine-protein kinase receptor Ret (Homo sapiens, UniProt P07949); assay: Inhibition of RET (unknown origin)
[45] = biological target: Tyrosine-protein kinase SYK (Homo sapiens, UniProt P43405); assay: Inhibition of SYK (unknown origin)
[46] = biological target: Mast/stem cell growth factor receptor Kit (Homo sapiens, UniProt P10721); assay: Inhibition of c-KIT (unknown origin)
[47] = biological target: Hepatocyte growth factor receptor (Homo sapiens, UniProt P08581); assay: Inhibition of MET (unknown origin)
[48] = system: KARPAS-299; assay: Antitumor activity against human KARPAS-299 cells harboring NMP-ALK xenografted in SCID mouse assessed as tumor regression administered for 9 days and measured on day 9; format: functional; settings: time 9.0 day
[49] = system: KARPAS-299; assay: Antitumor activity against human KARPAS-299 cells harboring NMP-ALK xenografted in SCID mouse assessed as tumor shrinkage by measuring T/C ratio at 25 mg/kg administered for 9 days and measured on day 9 (reference value: 100 %); format: functional; settings: time 9 day
[50] = system: KARPAS-299; assay: Antitumor activity against human KARPAS-299 cells harboring NMP-ALK xenografted in SCID mouse assessed as tumor regression by measuring T/C ratio at 50 mg/kg administered for 9 days and measured on day 9 (reference value: 100 %); format: functional; settings: time 9 day
[51] = Toxicity in SCID mouse xenografted with human KARPAS-299 cells harboring NMP-ALK assessed as reduction in body weight at 25 to 50 mg/kg administered for 9 days and measured on day 9; format: organism-based; settings: in vivo, 216 h, dose 25-50 mg/kg, time 9 day

Cytochrome P450 3A4, sequence (P08684 whole entry): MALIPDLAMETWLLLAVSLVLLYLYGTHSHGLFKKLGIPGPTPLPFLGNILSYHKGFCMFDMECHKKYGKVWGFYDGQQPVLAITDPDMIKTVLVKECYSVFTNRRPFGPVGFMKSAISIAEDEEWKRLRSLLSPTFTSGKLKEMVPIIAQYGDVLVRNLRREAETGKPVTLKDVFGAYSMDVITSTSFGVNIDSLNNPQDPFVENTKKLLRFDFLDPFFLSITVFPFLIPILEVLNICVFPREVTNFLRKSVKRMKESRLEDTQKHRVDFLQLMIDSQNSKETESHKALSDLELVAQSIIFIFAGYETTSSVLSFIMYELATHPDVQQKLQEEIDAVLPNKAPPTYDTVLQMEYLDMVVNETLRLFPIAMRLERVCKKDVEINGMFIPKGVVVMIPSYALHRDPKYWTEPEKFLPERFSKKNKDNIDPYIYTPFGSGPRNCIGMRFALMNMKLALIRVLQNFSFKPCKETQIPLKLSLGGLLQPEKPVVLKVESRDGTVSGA
Voltage-gated inwardly rectifying potassium channel KCNH2, sequence (Q12809 whole entry): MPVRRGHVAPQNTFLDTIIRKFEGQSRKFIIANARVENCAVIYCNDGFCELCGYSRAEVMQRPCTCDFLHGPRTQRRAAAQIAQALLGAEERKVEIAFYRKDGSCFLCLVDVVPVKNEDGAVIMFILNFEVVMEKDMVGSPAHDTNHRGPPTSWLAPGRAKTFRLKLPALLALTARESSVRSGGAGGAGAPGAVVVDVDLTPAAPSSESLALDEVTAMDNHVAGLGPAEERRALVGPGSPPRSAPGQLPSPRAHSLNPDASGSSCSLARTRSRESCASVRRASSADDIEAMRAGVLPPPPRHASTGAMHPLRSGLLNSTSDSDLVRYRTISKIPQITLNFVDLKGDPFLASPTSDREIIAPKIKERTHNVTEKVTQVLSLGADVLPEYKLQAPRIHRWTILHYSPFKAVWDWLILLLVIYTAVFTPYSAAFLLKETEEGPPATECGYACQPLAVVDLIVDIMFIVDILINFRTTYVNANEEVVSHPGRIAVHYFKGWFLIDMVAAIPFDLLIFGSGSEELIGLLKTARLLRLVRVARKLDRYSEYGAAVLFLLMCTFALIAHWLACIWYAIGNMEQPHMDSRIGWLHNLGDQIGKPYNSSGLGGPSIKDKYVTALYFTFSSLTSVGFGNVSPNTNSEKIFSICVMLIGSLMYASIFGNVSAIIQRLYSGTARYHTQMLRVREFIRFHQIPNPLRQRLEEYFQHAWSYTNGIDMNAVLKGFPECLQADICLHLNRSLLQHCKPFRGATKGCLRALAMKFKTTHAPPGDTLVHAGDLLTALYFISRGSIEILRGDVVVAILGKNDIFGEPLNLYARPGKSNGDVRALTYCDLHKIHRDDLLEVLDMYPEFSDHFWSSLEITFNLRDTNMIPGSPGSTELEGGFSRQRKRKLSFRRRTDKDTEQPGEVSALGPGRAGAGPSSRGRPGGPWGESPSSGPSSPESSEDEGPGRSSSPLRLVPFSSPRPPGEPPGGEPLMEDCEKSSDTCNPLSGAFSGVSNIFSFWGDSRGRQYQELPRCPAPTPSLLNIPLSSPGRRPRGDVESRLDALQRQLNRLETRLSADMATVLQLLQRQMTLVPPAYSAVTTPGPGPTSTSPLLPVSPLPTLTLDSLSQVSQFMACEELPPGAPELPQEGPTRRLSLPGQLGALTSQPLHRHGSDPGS
ALK tyrosine kinase receptor, sequence (Q9UM73 whole entry): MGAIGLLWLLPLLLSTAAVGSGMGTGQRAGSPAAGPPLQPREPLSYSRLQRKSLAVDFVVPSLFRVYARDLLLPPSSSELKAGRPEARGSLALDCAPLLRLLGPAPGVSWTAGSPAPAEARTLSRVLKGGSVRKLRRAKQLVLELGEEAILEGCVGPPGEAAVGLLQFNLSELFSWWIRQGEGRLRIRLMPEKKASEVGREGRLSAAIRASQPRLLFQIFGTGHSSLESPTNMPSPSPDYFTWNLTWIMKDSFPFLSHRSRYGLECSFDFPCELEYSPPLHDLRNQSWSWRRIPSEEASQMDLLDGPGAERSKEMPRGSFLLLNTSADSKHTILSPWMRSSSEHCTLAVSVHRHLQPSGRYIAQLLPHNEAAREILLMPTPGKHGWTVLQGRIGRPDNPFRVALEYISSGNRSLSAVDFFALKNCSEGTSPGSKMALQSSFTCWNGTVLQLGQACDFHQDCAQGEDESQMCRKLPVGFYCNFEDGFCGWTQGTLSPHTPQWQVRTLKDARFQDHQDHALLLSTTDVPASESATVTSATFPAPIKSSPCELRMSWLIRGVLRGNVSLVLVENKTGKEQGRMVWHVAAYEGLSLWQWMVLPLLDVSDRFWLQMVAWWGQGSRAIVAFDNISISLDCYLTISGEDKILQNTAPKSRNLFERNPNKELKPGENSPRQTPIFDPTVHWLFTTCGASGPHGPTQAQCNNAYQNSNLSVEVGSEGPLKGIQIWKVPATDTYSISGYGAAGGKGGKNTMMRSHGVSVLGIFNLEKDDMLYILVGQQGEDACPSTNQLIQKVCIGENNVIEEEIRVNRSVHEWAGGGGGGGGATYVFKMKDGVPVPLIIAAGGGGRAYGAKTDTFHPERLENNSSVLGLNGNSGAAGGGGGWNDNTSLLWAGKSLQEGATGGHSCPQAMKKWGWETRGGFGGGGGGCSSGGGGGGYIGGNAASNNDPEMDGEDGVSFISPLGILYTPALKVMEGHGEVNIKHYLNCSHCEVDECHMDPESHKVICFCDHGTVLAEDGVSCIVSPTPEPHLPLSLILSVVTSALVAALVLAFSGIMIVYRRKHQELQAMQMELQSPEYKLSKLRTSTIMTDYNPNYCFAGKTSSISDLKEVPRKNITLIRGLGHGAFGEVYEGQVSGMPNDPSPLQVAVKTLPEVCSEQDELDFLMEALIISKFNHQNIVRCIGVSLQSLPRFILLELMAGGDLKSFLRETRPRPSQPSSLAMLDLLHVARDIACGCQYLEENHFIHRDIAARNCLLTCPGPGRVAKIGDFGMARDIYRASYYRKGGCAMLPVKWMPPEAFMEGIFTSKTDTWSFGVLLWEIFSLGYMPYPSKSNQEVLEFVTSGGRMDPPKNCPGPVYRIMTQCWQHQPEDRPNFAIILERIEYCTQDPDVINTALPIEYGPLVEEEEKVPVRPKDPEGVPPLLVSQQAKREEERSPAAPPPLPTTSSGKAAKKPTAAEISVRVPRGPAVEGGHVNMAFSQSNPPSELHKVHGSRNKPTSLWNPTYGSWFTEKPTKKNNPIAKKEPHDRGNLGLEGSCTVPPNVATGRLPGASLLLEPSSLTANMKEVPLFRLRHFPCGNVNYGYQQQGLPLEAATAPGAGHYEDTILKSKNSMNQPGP
Glycogen synthase kinase-3 beta, sequence (P49841 whole entry): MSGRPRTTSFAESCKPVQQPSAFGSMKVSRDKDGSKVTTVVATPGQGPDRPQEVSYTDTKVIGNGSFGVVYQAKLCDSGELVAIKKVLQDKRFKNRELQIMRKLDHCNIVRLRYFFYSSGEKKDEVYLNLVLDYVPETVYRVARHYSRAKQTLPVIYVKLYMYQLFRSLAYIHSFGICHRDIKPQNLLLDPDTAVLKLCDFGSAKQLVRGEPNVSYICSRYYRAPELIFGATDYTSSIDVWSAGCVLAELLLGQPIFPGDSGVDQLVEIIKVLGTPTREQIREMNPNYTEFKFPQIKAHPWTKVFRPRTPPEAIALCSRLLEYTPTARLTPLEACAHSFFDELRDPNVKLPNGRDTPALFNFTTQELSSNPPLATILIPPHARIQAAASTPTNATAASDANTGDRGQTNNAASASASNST
Tyrosine-protein kinase JAK3, sequence (P52333 whole entry): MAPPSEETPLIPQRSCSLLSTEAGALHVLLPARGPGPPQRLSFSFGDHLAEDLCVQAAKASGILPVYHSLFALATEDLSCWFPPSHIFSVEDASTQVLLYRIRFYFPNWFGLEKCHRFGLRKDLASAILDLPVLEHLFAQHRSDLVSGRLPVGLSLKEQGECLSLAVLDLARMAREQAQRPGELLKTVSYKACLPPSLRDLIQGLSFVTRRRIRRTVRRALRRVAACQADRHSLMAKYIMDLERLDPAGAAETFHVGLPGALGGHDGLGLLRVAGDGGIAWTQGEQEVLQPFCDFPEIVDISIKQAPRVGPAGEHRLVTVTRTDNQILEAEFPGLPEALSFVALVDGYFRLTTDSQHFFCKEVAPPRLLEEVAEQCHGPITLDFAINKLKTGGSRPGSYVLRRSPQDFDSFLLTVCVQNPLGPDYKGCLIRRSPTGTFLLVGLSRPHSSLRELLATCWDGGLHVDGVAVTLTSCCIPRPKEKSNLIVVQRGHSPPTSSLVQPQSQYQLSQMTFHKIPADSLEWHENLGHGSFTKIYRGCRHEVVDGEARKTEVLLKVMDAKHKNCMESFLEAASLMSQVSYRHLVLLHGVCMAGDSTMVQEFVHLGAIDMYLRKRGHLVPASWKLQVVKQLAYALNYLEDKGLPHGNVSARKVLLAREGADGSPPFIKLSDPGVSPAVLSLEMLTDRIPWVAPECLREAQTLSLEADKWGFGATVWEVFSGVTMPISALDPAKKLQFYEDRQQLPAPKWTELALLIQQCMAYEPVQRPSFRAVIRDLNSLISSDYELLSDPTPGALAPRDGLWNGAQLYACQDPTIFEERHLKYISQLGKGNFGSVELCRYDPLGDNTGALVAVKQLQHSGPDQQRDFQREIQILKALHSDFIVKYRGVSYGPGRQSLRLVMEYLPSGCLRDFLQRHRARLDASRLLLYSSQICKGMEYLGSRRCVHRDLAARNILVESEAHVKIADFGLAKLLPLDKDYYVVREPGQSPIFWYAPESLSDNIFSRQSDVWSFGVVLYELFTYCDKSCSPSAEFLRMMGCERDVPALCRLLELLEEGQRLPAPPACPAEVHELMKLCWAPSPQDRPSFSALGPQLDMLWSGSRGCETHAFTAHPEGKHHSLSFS

SMILES: Cc1cc(Nc2nc(Nc3ccccc3S(=O)(=O)C(C)C)c3cccnc3n2)c(OC(C)C)cc1C1CCNCC1
- IC50 [1]: 7.23 µM

SMILES: Cc1cc(Nc2nc(Nc3ccccc3S(=O)(=O)C(C)C)c3cc[nH]c3n2)c(OC(C)C)cc1C1CCN(C)CC1
- IC50 [1]: 3.42 µM
- microsomal CLint [2]: 62 µL/min/mg
- microsomal CLint [3]: 34 µL/min/mg
- microsomal CLint [4]: 25 µL/min/mg
- IC50 [5]: 4.5 µM
- solubility [6]: 10.4 µM (≈ 6 µg/mL)
- log(permeability) [7]: < -3.3
- IC50 [8]: 1.7 µM
- clearance [9]: 58 mL/min/kg
- Vd [10]: 10.8 L/kg
- Cmax [11]: 425 nM
- AUC [12]: 5.98 µM·h
- bioavailability [13]: 59%
- clearance [14]: 15 mL/min/kg
- Vd [15]: 13.7 L/kg
- Cmax [16]: 291 nM
- AUC [17]: 7.19 µM·h
- bioavailability [18]: 35%

SMILES: COc1ccc2nc(Nc3cc(C)c(C4CCN(C)CC4)cc3OC(C)C)nc(Nc3ccccc3S(=O)(=O)C(C)C)c2c1
- IC50 [1]: 3.94 µM

SMILES: Cc1cc(Nc2nc(Nc3ccccc3S(=O)(=O)C(C)C)c3ccccc3n2)c(OC(C)C)cc1C1CCN(C)CC1
- IC50 [1]: 3.24 µM

SMILES: Cc1cc(Nc2cc(Nc3ccccc3S(=O)(=O)C(C)C)c3cc[nH]c3n2)c(OC(C)C)cc1C1CCN(C)CC1
- IC50 [1]: 4.91 µM
- IC50 [19]: > 25 µM

SMILES: Cc1cc2c(Nc3ccccc3S(=O)(=O)C(C)C)nc(Nc3cc(C)c(C4CCNCC4)cc3OC(C)C)nc2[nH]1
- IC50 [1]: 5.41 µM

SMILES: Cc1cc(Nc2nc(Nc3ccccc3S(=O)(=O)C(C)C)c3cn[nH]c3n2)c(OC(C)C)cc1C1CCN(C)CC1
- IC50 [1]: 5.12 µM
- microsomal CLint [2]: 37 µL/min/mg
- microsomal CLint [3]: 30 µL/min/mg
- microsomal CLint [4]: 32 µL/min/mg
- IC50 [5]: 3.3 µM
- solubility [6]: > 175 µM
- log(permeability) [7]: -4.1
- IC50 [8]: 1 µM

SMILES: Cc1cc(Nc2cc(Nc3ccccc3S(=O)(=O)C(C)C)nc3[nH]ccc23)c(OC(C)C)cc1C1CCN(C)CC1
- IC50 [1]: 2.6 µM

SMILES: Cc1cc(Nc2nc(Nc3ccccc3S(=O)(=O)C(C)C)c3c(C)[nH]nc3n2)c(OC(C)C)cc1C1CCN(C)CC1
- IC50 [20]: 0.01 µM
- IC50 [21]: 0.03 µM
- IC50 [1]: 2.51 µM
- IC50 [19]: 0.004 µM
- IC50 [22]: 9.4 µM
- IC50 [23]: 1.4 µM
- IC50 [24]: 7.6 µM
- IC50 [25]: > 10 µM
- IC50 [26]: 0.92 µM
- IC50 [27]: 4.3 µM
- IC50 [28]: > 10 µM
- IC50 [29]: > 10 µM
- IC50 [30]: > 10 µM
- IC50 [31]: > 10 µM
- IC50 [32]: 3.9 µM
- IC50 [33]: > 10 µM
- IC50 [34]: > 10 µM
- IC50 [35]: 2.9 µM
- IC50 [36]: > 10 µM
- IC50 [37]: > 10 µM
- IC50 [38]: 0.96 µM
- IC50 [39]: 7.8 µM
- IC50 [40]: 0.47 µM
- IC50 [41]: 7.4 µM
- IC50 [42]: 4.3 µM
- IC50 [43]: 9.7 µM
- IC50 [44]: 3.6 µM
- IC50 [45]: > 10 µM
- IC50 [46]: > 10 µM
- IC50 [47]: 8.1 µM
- microsomal CLint [2]: 13 µL/min/mg
- microsomal CLint [3]: 33 µL/min/mg
- microsomal CLint [4]: 19 µL/min/mg
- IC50 [5]: > 25 µM
- solubility [6]: 114 µM (≈ 67.5 µg/mL)
- log(permeability) [7]: -4.9
- IC50 [8]: 20.8 µM
- clearance [9]: 71 mL/min/kg
- Vd [10]: 12.1 L/kg
- Cmax [11]: 429 nM
- AUC [12]: 4.9 µM·h
- bioavailability [13]: 58%
- clearance [14]: 32 mL/min/kg
- Vd [15]: 19.4 L/kg
- Cmax [16]: 151 nM
- AUC [17]: 3.07 µM·h
- bioavailability [18]: 35%
- Activity [48]: Dose-dependent effect
- T/C [49]: 37%
- T/C [50]: -54%
- Activity [51]: Non-Toxic

SMILES: Cc1cc(Nc2nc(Nc3ccccc3S(=O)(=O)C(C)C)c3[nH]nnc3n2)c(OC(C)C)cc1C1CCN(C)CC1
- IC50 [1]: > 10 µM

SMILES: Cc1cc(Nc2nc(Nc3ccccc3S(=O)(=O)C(C)C)c3c(N)n[nH]c3n2)c(OC(C)C)cc1C1CCN(C)CC1
- IC50 [1]: 4.5 µM

SMILES: Cc1cc(Nc2nc(Nc3ccccc3S(=O)(=O)C(C)C)c3cn[nH]c3n2)c(OC(C)C)cc1C1CCNCC1
- IC50 [1]: 6.22 µM

SMILES: Cc1cc(Nc2nc(Nc3ccccc3S(=O)(=O)C(C)C)c3c(C)n[nH]c3n2)c(OC(C)C)cc1C1CCNCC1
- IC50 [1]: 5.54 µM

SMILES: Cc1cc(Nc2nc(Nc3ccccc3S(=O)(=O)C(C)C)c3cc[nH]c3n2)c(OC(C)C)cc1C1CCNCC1
- IC50 [1]: 2.22 µM
- microsomal CLint [2]: 15 µL/min/mg
- microsomal CLint [3]: 14 µL/min/mg
- microsomal CLint [4]: 22 µL/min/mg
- IC50 [5]: 4.6 µM
- solubility [6]: 8.1 µM (≈ 4.56 µg/mL)
- log(permeability) [7]: -5.7
- clearance [9]: 40 mL/min/kg
- Vd [10]: 7.3 L/kg
- Cmax [11]: 51 nM
- AUC [12]: 0.406 µM·h
- bioavailability [13]: 3%

SMILES: Cc1cc2c(Nc3ccccc3S(=O)(=O)C(C)C)nc(Nc3cc(C)c(C4CCN(C)CC4)cc3OC(C)C)nc2[nH]1
- IC50 [1]: 5.73 µM

SMILES: Cc1cc(NC2=NC3NCCCC3C(Nc3ccccc3S(=O)(=O)C(C)C)=N2)c(OC(C)C)cc1C1CCNCC1 (configuration not stated)
- IC50 [1]: 2.03 µM
